US20110213033A1, “SKIN CONDITIONER” (Kabushiki Kaisha Soken, priority 1998, published 2011)

Key:
atopic skin = assay: 2-hour moisture retention duration test on atopic skin; type: in vivo, human; settings: FIGS. 21 through 31
Protocol: A 2-hour moisture retention duration test was performed on atopic skin.
Panelists: 7 persons with atopic skin
Test Method: Same as Test Example 2
Measurement Method: Same as Text Example 2
Test Apparatus: Same as Test Example 2

[1] = tested on: normal human skin fibroblasts; assay: Collagen production recovery test on damaged fibroblasts; type: cell-based; settings: hypoxanthine/xanthine oxidase damage; samples at final concentration 3.3%, 24 hours at 37° C.; FIG. 1
Protocol: A collagen production recovery test was conducted on damaged fibroblasts. Six to eight subcultures of normal human skin fibroblasts (Physicochemical Research Institute, Cell Development Bank BIRGB) were used in the test. […] Measurement of collagen production ability of a confluent in the steady state was performed according to the method of Webster, et al. based on the uptake of ^3H-proline into the produced collagen. […] Since proline is a main component of the amino acids that compose collagen, fibroblasts are cultured in a medium containing ^3H-proline, and the ^3H activity taken up into collagen in the cells is measured. Units are in d.p.m., and represent the number of […] of radioactivity released per minute.

| Compound | moisture retention duration (30 to 120 minutes after application) (atopic skin) | collagen production ability of fibroblasts damaged by active oxygen (3H-proline uptake into collagen) [1] |
| --- | --- | --- |
| N=C(N)NCCC[C@H](N)C(=O)O [L-arginine] | continuation of moisture retention was observed | significantly improved |
| NCCO [ethanolamine] | continuation of moisture retention was observed | significantly improved |
